The record followed here is PubChem BioAssay (NCI).

Several values for one entry are separate records, joined by “and”; a condition that tells them apart may be missing. Identical values can stand only once.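 1) Cells in 96-well plates. 2) Compound, 48 h, 5 concentrations. 3) Linear interpolation between surrounding doses. 4) Unreached endpoint = highest concentration. The concentration for 50% growth inhibition is given as GI50. Definition used: TGI = concentration required for complete inhibition of growth.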

Some test systems named below: HOP-62 NSCLC; HT29 colon; MALME-3M melanoma; MCF7 breast; MOLT-4 leukemia; OVCAR-3 ovarian; RPMI-8226 leukemia; SF-268 CNS; SN12C renal; SR leukemia.
Test in all cases: NCI-60 cell line screen, 48 h

For `CC12CC(Br)(Br)C(=O)C3C1CCCC32`, the TGI in the assay on HOP-62 NSCLC worked out at 28.5 µM; in the assay with HT29 colon, 24.2 µM; in the assay on MALME-3M melanoma, 9.5 µM; with MCF7 breast, 11.2 µM; in the assay with MOLT-4 leukemia, 14.9 µM; in the assay with OVCAR-3 ovarian, 7.08 µM. For the same compound, the TGI with RPMI-8226 leukemia was 9.74 µM; in the assay on SF-268 CNS it was 35.1 µM; in the assay on SN12C renal it was 11.4 µM; in the assay on SR leukemia, 13.6 µM.
With `O=NN(CC(=O)NNc1ccccc1)CC(=O)NNc1ccccc1`, the GI50 in the assay on HOP-62 NSCLC is over 100 µM; with HT29 colon it was over 100 µM; in the assay on MALME-3M melanoma it was 42 µM; in the assay with MCF7 breast it was 8.13 µM; with MOLT-4 leukemia, 4.04 µM; with OVCAR-3 ovarian it was 11.3 µM. In addition, the GI50 in the assay on RPMI-8226 leukemia was 12.4 µM; in the assay on SF-268 CNS, 22.1 µM; in the assay on SN12C renal, over 100 µM; with SR leukemia it was over 25.6 µM. Besides, the TGI in the assay with HOP-62 NSCLC, in the assay with HT29 colon, in the assay with MALME-3M melanoma, in the assay on MCF7 breast, in the assay on MOLT-4 leukemia and in the assay with OVCAR-3 ovarian was over 100 µM throughout. The TGI with RPMI-8226 leukemia, in the assay on SF-268 CNS, in the assay with SN12C renal and in the assay on SR leukemia was over 100 µM in each case.
Turning to `C[C@H]1CCC/C=C/[C@@H]2C[C@H](O)C[C@H]2[C@H](O)C(O)C(O)C(=O)O1` (some centres not stated), the GI50 is 4.85 µM in the assay on HOP-62 NSCLC; 1.24 µM in the assay on HT29 colon; 1.56 µM in the assay on MALME-3M melanoma; 2.64 µM in the assay with MCF7 breast; 0.906 µM in the assay on MOLT-4 leukemia; 2.35 µM with OVCAR-3 ovarian. Moreover, the GI50 with RPMI-8226 leukemia was 2.66 µM; in the assay on SF-268 CNS, 1.19 µM; in the assay on SN12C renal, 2.66 µM; in the assay with SR leukemia, 1.28 µM. Moreover, the TGI is over 100 µM in the assay with HOP-62 NSCLC; 17.9 µM in the assay on HT29 colon; 5.57 µM in the assay with MALME-3M melanoma; over 20.1 µM with MCF7 breast; 4.56 µM with MOLT-4 leukemia; 20.1 µM in the assay on OVCAR-3 ovarian. For the same compound, the TGI in the assay with RPMI-8226 leukemia was 14.9 µM; in the assay on SF-268 CNS, over 100 µM; with SN12C renal it was 7.63 µM; with SR leukemia, 3.66 µM.
For `CC(C)C[C@H](NC(=O)[C@@H](N)Cc1cccc2ccccc12)B(O)O`, the GI50 in the assay on HOP-62 NSCLC was 0.831 µM; in the assay with HT29 colon it was 0.216 µM; in the assay with MALME-3M melanoma it was 0.156 µM; with MCF7 breast it was 0.389 µM; in the assay on MOLT-4 leukemia, 0.21 µM; in the assay on OVCAR-3 ovarian, 0.187 µM. For the same compound, the GI50 with SF-268 CNS was 0.246 µM and 0.0326 µM; with SN12C renal it was 1.39 µM. Also, the TGI with MALME-3M melanoma was 0.426 µM and 0.0707 µM; in the assay on MCF7 breast, 50 µM; in the assay with RPMI-8226 leukemia it was under 0.0272 µM; in the assay on SR leukemia, 0.0653 µM.
For `CCCCCCCCCCCCNCCCc1ccccc1`, the GI50 in the assay with HOP-62 NSCLC was 2.07 µM; in the assay with HT29 colon, 1.75 µM; with MALME-3M melanoma, 1.97 µM; in the assay on MCF7 breast it was 1.81 µM; in the assay with MOLT-4 leukemia, 2.04 µM; with OVCAR-3 ovarian, 1.79 µM. The GI50 in the assay with RPMI-8226 leukemia was 2.09 µM; with SF-268 CNS, 1.87 µM; in the assay on SN12C renal, 1.63 µM; in the assay with SR leukemia it was 1.2 µM. Also, the TGI came out at 3.7 µM in the assay with HOP-62 NSCLC; 3.21 µM in the assay with HT29 colon; 3.64 µM in the assay with MALME-3M melanoma; 3.35 µM with MCF7 breast; 4.5 µM in the assay with MOLT-4 leukemia; 3.18 µM in the assay on OVCAR-3 ovarian. For the same compound, the TGI with RPMI-8226 leukemia is 4.41 µM; with SF-268 CNS it was 3.85 µM; in the assay with SN12C renal it was 3.27 µM; with SR leukemia, 3.56 µM.
As to `Nc1ccccc1SC(CC(=O)c1ccccc1)c1c(Cl)cccc1Cl` (configuration not stated), the GI50 with HOP-62 NSCLC is 6.82 µM; with HT29 colon, 2.29 µM; with MALME-3M melanoma it was 10.8 µM; in the assay on MCF7 breast, 1.25 µM; with MOLT-4 leukemia, 3 µM; in the assay on OVCAR-3 ovarian, 3.4 µM. The GI50 is 1.9 µM in the assay on RPMI-8226 leukemia, 3.43 µM with SF-268 CNS, 2.94 µM in the assay with SN12C renal and 1.45 µM in the assay with SR leukemia. In addition, the TGI in the assay on HOP-62 NSCLC amounted to 27.7 µM; in the assay with HT29 colon, 5.03 µM; in the assay on MALME-3M melanoma, 25.3 µM; with MCF7 breast it was 13.1 µM; in the assay on MOLT-4 leukemia, 7.79 µM; with OVCAR-3 ovarian it was 12 µM. In addition, the TGI is 5.35 µM in the assay on RPMI-8226 leukemia, 13.4 µM in the assay with SF-268 CNS, 11.5 µM in the assay on SN12C renal and 5.79 µM with SR leukemia.
Consider `O=C1C2C3C=CC(C2C(=O)N1CN1CCOCC1)C1C2C(=O)N(CN4CCOCC4)C(=O)C2C31` (configuration not stated), for which the TGI in the assay on HOP-62 NSCLC was over 100 µM; in the assay with HT29 colon, over 100 µM; with MALME-3M melanoma, over 100 µM; in the assay on MCF7 breast, over 100 µM; in the assay with MOLT-4 leukemia it was 53.3 µM; with OVCAR-3 ovarian it was over 77.8 µM. Besides, the TGI with RPMI-8226 leukemia is over 71.9 µM; with SF-268 CNS, over 64 µM; with SN12C renal, over 64.4 µM; with SR leukemia, over 100 µM.
`CC(C)OC(=O)NNc1c(Cl)cc(Cl)cc1Cl`: the TGI is over 100 µM with HOP-62 NSCLC; over 100 µM in the assay with HT29 colon; 74.2 µM with MALME-3M melanoma; over 100 µM with MCF7 breast; over 100 µM in the assay on MOLT-4 leukemia; over 100 µM with OVCAR-3 ovarian. For the same compound, the TGI with RPMI-8226 leukemia, in the assay on SF-268 CNS, in the assay with SN12C renal and with SR leukemia was over 100 µM throughout.
As to `CCn1cnc(C[C@H](NC(=O)[C@@H](NC(=O)Nc2cc(C(F)(F)F)cc(C(F)(F)F)c2)C(C)(C)C)C(=O)OC)c1`, the GI50 in the assay on HOP-62 NSCLC, with HT29 colon, with MALME-3M melanoma, in the assay with MCF7 breast, with MOLT-4 leukemia and in the assay with OVCAR-3 ovarian was over 10 µM each time. Moreover, the GI50 in the assay with RPMI-8226 leukemia, in the assay with SF-268 CNS, in the assay with SN12C renal and in the assay on SR leukemia was over 10 µM in each case. In addition, the TGI in the assay on HOP-62 NSCLC, with HT29 colon, in the assay with MALME-3M melanoma, in the assay with MCF7 breast, in the assay with MOLT-4 leukemia and in the assay with OVCAR-3 ovarian was over 10 µM in each case. In addition, the TGI with RPMI-8226 leukemia, in the assay on SF-268 CNS, with SN12C renal and in the assay with SR leukemia was over 10 µM throughout.
